From patent US20220187282A1, “CARDIOMYOCYTE PROLIFERATION” (The Council of the Queensland Institute of Medical Research, priority 2019, published 2022)
Read-outs that look alike come from different tables or passages of the source.

Tests used:
immature hCOs [1] = experiment: immature hCO screen, Ki-67 intensity (proliferation); format: cell-based, human; conditions: for proliferation in immature hCO (Ki-67 intensity): 0.1, 1 and 10 μM, 2 days; for hCO Screen Max Effect (%): maximum over 0.1, 1, 10 uM
Procedure: Heart-dyno culture inserts were fabricated using standard SU-8 photolithography and PDMS molding practices (Mills et al., 2017a). CTRL medium: α-MEM GlutaMAX (ThermoFisher Scientific), 10% fetal bovine serum (FBS) (ThermoFisher Scientific), 200 μM L-ascorbic acid 2-phosphate sesquimagnesium salt hydrate (Sigma) and 1% Penicillin/Streptomycin (ThermoFisher Scientific). For each hCO, 5×10^4 cardiac cells in CTRL medium were mixed with collagen I to make a 3.5 μL final solution containing 2.6 mg/mL collagen I and 9% Matrigel. The bovine acid-solubilized collagen I (Devro) was first salt balanced and pH neutralized using 10×DMEM and 0.1 M NaOH, respectively, prior to mixing with Matrigel and cells. The mixture was prepared on ice and pipetted into the Heart-Dyno. The Heart-Dyno was then centrifuged at 100×g for 10 s to ensure the hCO form halfway up the posts. The mixture was then gelled at 37° C. for 60 min prior to the addition of CTRL medium to cover the tissues (150 μL/hCO). The Heart-Dyno design facilitates the self-formation of tissues around in-built PDMS exercise poles (designed to deform ˜0.07 μm/μN). The medium was changed every 2-3 days (150 μL/hCO).
hCOs were cultured in CTRL medium for formation for 5 days and then either kept in CTRL medium culture or changed to maturation medium (Mills et al., 2017a) comprising DMEM without glucose, glutamine and phenol red (ThermoFisher Scientific) supplemented with 4% […](without insulin) (ThermoFisher Scientific), 1% GlutaMAX (ThermoFisher Scientific), 200 μM L-ascorbic acid 2-phosphate sesquimagnesium salt hydrate and 1% Penicillin/Streptomycin (ThermoFisher Scientific), 1 mmol/L glucose and 100 μmon palmitic acid (conjugated to bovine serum albumin within B27 by incubating for 2h at 37° C., Sigma) with changes every 2-3 days.
Whole-Mount Immunostaining hCOs were fixed for 60 min with 1% paraformaldehyde (Sigma) at room temperature and washed 3× with PBS, after which they were incubated with primary antibodies (see Star Methods Table) in Blocking Buffer, 5% FBS and 0.2% Triton-X-100 (Sigma) in PBS overnight at 4° C. Cells were then washed in Blocking Buffer 2× for 2 h and subsequently incubated with secondary antibodies (see Star Methods Table) and Hoechst33342 (1:1000) overnight at 4° C. They were washed in Blocking Buffer 2× for 2 h and imaged in situ or mounted on microscope slides using Fluoromount-G (Southern Biotech).
For screening hCOs were imaged using a Leica DMi8 high content imaging microscope for in situ imaging. Custom batch processing files were written in Matlab R2013a (Mathworks) to remove the background, calculate the image intensity, and export the batch data to an Excel (Microsoft) spreadsheet.
(§1) The compound library included 5,000 biologically annotated pre-clinical, clinical, and tool compounds. They were selected based on a combination of criteria including balancing the number of external/internal compounds, diversity of annotated targets to cover greater than 1500 biological targets, and known targets associated with cell proliferation. […] Both negative vehicle (DMSO) and positive (CHIR99021) controls were included on each plate in each experiment (FIG. 2B,C).

immature hCOs [2] = experiment: immature hCO screen, force of contraction; format: cell-based, human; conditions: 2 days
Procedure: The pole deflection was used to approximate the force of contraction as per (Mills et al., 2017a). A Leica DMi8 inverted high content Imager was used to capture a 10 s time-lapse of each hCO contracting in real time at 37° C. Custom batch processing files were written in Matlab R2013a (Mathworks) to convert the stacked TIFF files to AVI, track the pole movement (using vision.PointTracker), determine the contractile parameters, produce a force-time figure, and export the batch data to an Excel (Microsoft) spreadsheet.
as §1

kinases [3] = target: kinases (Homo sapiens, UniProt O14936); format: biochemical; conditions: CASK FRET-Lantha SP; Test Conc(μM) 1
kinases [4] = target: kinases (Homo sapiens, UniProt P06241); format: biochemical
Sequence of kinases (Homo sapiens, UniProt P06241) (P06241 whole entry): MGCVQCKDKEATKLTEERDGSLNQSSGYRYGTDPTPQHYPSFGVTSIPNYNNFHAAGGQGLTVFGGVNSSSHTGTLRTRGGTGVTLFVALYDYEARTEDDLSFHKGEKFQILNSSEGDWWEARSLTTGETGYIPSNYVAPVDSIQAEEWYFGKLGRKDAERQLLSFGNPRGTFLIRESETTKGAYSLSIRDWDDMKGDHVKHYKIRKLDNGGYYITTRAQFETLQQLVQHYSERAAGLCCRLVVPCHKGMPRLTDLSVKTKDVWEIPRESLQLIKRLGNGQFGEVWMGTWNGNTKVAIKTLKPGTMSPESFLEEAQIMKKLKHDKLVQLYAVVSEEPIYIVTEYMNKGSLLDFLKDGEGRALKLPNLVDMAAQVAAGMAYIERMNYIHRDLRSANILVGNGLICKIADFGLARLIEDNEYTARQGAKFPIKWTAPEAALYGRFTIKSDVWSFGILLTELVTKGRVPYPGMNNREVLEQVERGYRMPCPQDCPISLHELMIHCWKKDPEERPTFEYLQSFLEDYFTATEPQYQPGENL

kinases [5] = target: kinases (Homo sapiens, UniProt P22612); format: biochemical; conditions: PRKACG FRET-Lantha SP; Test Conc(μM) 1
kinases [6] = target: kinases (Homo sapiens, UniProt P29323); format: biochemical; conditions: EPHB2 FRET-Z-Lyte SP; Test Conc(μM):ATP Conc(μM) 1:75
Sequence of kinases (Homo sapiens, UniProt P29323) (P29323 19-1055): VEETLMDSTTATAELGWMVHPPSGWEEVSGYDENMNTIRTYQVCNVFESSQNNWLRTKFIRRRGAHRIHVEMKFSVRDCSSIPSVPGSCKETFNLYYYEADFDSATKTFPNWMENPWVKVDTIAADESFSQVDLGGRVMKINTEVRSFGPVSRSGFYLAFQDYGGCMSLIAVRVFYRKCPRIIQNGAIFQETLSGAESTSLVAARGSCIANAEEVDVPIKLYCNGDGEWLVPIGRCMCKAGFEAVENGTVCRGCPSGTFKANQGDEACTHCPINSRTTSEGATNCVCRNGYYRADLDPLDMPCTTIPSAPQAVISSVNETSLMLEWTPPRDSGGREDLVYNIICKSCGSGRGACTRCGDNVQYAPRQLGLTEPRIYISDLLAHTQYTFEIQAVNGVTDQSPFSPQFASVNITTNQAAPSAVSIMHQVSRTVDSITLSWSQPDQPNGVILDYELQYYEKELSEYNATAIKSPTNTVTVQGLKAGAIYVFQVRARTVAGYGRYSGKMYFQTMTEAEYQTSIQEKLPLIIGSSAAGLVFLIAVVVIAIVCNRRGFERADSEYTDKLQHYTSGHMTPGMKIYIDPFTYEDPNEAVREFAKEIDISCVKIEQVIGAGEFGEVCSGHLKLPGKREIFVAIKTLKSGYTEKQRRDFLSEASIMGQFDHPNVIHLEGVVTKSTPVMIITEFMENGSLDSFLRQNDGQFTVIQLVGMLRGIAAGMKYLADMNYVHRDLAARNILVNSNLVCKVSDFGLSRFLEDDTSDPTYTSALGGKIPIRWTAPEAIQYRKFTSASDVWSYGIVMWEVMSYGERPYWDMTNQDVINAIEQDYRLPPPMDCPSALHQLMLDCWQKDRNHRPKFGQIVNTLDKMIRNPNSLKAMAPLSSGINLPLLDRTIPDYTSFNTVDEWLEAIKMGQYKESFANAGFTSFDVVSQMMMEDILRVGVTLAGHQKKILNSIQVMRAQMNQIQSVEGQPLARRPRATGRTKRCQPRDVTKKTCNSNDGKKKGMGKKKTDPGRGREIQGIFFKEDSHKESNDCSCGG

kinases [7] = target: kinases (Homo sapiens, UniProt P49761); format: biochemical; conditions: CLK3 FRET-Z-Lyte SP; Test Conc(μM):ATP Conc(μM) 1:150
kinases [8] = target: kinases (Homo sapiens, UniProt P51617); format: biochemical; conditions: IRAK1 FRET-Adapta SP; Test Conc(μM):ATP Conc(μM) 1:25
Sequence of kinases (Homo sapiens, UniProt P51617) (P51617 whole entry): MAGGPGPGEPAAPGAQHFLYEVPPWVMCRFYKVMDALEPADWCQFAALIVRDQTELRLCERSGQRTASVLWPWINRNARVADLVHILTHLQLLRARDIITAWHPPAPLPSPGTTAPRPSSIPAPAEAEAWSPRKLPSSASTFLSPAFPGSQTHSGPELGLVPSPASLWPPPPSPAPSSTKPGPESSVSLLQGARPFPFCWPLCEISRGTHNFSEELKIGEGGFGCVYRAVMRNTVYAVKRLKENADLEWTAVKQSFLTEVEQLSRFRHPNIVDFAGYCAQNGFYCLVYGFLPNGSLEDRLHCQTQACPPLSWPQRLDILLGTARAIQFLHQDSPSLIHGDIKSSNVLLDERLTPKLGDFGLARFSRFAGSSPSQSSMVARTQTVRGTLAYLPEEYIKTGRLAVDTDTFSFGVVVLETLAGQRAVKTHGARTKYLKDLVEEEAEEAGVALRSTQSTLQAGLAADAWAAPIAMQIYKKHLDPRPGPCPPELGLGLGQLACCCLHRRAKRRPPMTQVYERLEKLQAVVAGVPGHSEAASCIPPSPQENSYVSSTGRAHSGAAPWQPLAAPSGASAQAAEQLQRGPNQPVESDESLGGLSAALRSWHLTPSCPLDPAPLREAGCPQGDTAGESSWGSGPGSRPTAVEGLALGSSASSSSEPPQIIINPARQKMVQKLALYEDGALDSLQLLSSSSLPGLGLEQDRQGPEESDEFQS

kinases [9] = target: kinases (Homo sapiens, UniProt Q5S007); format: biochemical
Sequence of kinases (Homo sapiens, UniProt Q5S007) (Q5S007 whole entry): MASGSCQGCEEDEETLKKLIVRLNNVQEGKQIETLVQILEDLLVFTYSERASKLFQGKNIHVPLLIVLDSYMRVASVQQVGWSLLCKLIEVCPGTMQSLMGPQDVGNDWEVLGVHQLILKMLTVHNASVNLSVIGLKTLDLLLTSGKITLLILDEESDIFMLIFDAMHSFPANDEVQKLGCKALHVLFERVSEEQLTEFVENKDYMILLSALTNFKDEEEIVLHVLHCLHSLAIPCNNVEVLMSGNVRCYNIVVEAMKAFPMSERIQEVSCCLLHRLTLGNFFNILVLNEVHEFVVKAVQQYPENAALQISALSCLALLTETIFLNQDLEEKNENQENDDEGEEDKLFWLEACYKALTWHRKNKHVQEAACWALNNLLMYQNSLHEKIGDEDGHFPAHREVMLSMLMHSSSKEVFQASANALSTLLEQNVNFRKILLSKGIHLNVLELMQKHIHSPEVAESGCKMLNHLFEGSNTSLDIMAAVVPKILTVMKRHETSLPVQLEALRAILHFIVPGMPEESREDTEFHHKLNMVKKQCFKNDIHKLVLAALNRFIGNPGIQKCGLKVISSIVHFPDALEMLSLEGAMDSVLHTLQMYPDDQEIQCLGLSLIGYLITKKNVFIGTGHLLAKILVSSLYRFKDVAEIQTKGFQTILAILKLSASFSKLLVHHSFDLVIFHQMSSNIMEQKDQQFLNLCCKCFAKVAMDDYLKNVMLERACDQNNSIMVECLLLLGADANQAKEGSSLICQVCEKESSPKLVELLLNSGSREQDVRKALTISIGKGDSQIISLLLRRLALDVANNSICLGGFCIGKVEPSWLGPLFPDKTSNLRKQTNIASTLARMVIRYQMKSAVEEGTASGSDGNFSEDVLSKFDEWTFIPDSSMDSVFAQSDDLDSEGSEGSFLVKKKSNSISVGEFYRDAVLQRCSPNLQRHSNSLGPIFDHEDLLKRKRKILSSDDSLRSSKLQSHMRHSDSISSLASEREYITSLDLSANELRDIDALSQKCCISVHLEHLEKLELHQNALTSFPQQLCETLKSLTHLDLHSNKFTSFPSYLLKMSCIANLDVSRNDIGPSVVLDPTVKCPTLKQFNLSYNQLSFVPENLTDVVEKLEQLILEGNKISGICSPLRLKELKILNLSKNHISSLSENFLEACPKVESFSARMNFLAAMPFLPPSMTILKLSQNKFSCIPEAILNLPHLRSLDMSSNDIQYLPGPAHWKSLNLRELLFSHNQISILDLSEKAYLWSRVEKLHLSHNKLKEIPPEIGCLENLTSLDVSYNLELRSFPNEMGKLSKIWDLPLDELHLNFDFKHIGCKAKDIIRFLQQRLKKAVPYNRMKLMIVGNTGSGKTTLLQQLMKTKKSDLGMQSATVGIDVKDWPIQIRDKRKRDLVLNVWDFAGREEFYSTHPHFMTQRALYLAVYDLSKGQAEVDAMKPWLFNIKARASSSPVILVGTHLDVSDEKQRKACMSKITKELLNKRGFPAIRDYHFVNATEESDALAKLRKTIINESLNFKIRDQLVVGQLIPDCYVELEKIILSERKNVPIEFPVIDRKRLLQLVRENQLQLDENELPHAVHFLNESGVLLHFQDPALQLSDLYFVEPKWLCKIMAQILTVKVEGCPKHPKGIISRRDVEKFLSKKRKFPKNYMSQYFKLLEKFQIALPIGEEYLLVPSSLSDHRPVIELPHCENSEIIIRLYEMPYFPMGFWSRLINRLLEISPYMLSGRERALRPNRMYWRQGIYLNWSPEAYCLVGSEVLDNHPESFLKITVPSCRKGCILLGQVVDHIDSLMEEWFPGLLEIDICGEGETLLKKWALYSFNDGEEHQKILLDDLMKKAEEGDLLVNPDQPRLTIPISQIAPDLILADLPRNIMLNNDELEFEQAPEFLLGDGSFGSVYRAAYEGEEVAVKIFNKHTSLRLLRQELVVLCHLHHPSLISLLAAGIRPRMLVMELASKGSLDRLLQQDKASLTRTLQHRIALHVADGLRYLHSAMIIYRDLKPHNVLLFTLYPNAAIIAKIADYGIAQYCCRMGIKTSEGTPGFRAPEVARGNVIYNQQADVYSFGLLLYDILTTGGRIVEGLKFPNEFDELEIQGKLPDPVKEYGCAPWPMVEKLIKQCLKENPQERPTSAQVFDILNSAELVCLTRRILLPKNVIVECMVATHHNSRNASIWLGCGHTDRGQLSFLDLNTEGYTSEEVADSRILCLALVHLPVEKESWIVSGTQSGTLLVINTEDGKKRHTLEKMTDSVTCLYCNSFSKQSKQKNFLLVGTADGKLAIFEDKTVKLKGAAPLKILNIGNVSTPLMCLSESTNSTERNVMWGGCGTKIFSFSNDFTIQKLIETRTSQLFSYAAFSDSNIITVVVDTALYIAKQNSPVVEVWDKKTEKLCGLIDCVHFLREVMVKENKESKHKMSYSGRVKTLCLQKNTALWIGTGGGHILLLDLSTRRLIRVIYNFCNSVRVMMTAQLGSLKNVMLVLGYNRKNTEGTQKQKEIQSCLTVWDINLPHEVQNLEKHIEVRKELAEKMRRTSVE

kinases [10] = target: kinases (Homo sapiens, UniProt Q8N752); format: biochemical; conditions: CSNK1A1L FRET-Z-Lyte SP; Test Conc(μM):ATP Conc(μM) 1:5
kinases [11] = target: kinases (Homo sapiens, UniProt Q8NEB9); format: biochemical; conditions: PIK3C3 (hVPS34) *Mn* Adapta SP; Test Conc(μM):ATP Conc(μM) 1:10
kinases [12] = target: kinases (Homo sapiens, UniProt Q8TDX7); format: biochemical; conditions: NEK7 FRET-Z-Lyte SP; Test Conc(μM):ATP Conc(μM) 1:50
Sequence of kinases (Homo sapiens, UniProt Q8TDX7) (Q8TDX7 whole entry): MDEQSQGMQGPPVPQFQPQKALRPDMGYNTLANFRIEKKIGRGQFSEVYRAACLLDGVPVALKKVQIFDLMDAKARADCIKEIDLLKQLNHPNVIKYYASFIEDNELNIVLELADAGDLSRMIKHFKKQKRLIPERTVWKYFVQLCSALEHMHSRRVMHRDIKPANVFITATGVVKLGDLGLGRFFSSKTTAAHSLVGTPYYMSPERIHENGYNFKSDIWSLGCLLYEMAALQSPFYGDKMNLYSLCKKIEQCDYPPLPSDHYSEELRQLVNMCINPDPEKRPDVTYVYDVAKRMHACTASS

kinases [13] = target: kinases (Homo sapiens, UniProt Q9BYP7); format: biochemical; conditions: WNK3 FRET-Lantha SP; Test Conc(μM) 1
kinases [14] = target: kinases (Homo sapiens, UniProt Q9P1W9); format: biochemical; conditions: PIM2 FRET-Z-Lyte SP; Test Conc(μM):ATP Conc(μM) 1:5
kinases [15] = target: kinases (Homo sapiens, UniProt Q9Y572); format: biochemical; conditions: RIPK3 FRET-Lantha SP; Test Conc(μM) 1
[16] = FYN A FRET-Lantha SP, Test Conc(μM) 1
[17] = FYN FRET-Z-Lyte SP, Test Conc(μM):ATP Conc(μM) 1:75
[18] = LRRK2 FL FRET-Adapta SP, Test Conc(μM):ATP Conc(μM) 1:50
[19] = LRRK2 Hu Phos FRET-Adapta SP, Test Conc(μM):ATP Conc(μM) 1:75

| SMILES | hCO Screen 0.1 uM Prolif Activation Ki-67 (%) (immature hCOs [1]) | hCO Screen 1 uM Prolif Activation Ki-67 (%) (immature hCOs [1]) | hCO Screen 10 uM Prolif Activation Ki-67 (%) (immature hCOs [1]) | proliferation in immature hCO (Ki-67 intensity) (immature hCOs [1]) | hCO Screen Max Effect (%) (immature hCOs [1]) | contractile parameters / force of contraction (immature hCOs [2]) | Mean Inhib (%) (kinases [3]) | Mean Inhib (%) (kinases [4]; [16]) | Mean Inhib (%) (kinases [4]; [17]) | Mean Inhib (%) (kinases [5]) | Mean Inhib (%) (kinases [6]) | Mean Inhib (%) (kinases [7]) | Mean Inhib (%) (kinases [8]) | Mean Inhib (%) (kinases [9]; [18]) | Mean Inhib (%) (kinases [9]; [19]) | Mean Inhib (%) (kinases [10]) | Mean Inhib (%) (kinases [11]) | Mean Inhib (%) (kinases [12]) | Mean Inhib (%) (kinases [13]) | Mean Inhib (%) (kinases [14]) | other results |
| --- | --- | --- | --- | --- | --- | --- | --- | --- | --- | --- | --- | --- | --- | --- | --- | --- | --- | --- | --- | --- | --- |
| Cc1ccc(NC(=O)c2ccnc(N3CCOCC3)c2)cc1Nc1ccnc(N2CC(C)OC(C)C2)n1 (stereo not drawn) [compound 3] | 299 | 23 | 111 | induced proliferation | 299 | without affecting contractile parameters | 16.8 | 4.8 | 5.1 | 0.7 | 6.1 | 2.0 | 11.2 | 0.5 | 13.2 | 2.0 | 3.5 | 7.4 | 5.3 | −0.3 | Mean Inhib (%) (kinases [15]): 20.9% |
| Cc1cc(Oc2ccnc(Nc3ccc(S(N)(=O)=O)cc3)c2)c(-c2ccccn2)nc1C [compound 65] | −38 | 96 | 121 | induced proliferation | 121 | without affecting contractile parameters | 12.1 | 27.5 | 43.1 | 2.2 | 58.7 | 5.1 | 5.1 | 3.0 | 6.1 | 0.5 | 1.1 | 6.9 | −2.5 | 3.7 | Mean Inhib (%) (kinases [15]): 76.6% |
